pKi: −log10 of the molar value.
Key:
bovine RNase A [1] = target: T1, bovine RNase A (Bos taurus, UniProt P61823); experiment: Ki determination by Dixon analysis (RNaseAlert); format: biochemical; details: 74 pM RNase A, 40 nM RNaseAlert substrate, pH 7.0
T1 sequence (P61823 27-150): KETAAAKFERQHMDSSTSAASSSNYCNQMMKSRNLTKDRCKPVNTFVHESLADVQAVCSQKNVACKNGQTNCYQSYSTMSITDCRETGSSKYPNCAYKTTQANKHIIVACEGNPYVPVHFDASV
Source text: To measure the inhibition constant of compound #467929 against bovine RNase A, Dixon analysis was used to determine the relationship between RNase activity and inhibitor concentration. The […] fluorescence assay (Ambion) was used to quantify RNase activity.

MMLV RT RNase H = MMLV RT RNase H (Moloney murine leukemia virus, UniProt P03355); experiment: RT-based RNase H cleavage of RNA:DNA hybrid; format: biochemical
Experimental: As described above, Chembridge compound #467929 offered protection from several RNA-specific endonucleolytic activities. […] A 20-mer DNA oligonucleotide was asymmetrically annealed to a 1500 base synthetic RNA to create an RNA:DNA duplex substrate for RNase H. Reactions were initiated with 10 U of MMLV RT in 1× RT buffer (50 mM TrisCl pH 8.3, 75 mM KC, 3 mM MgCl2, 5 mM DTT) containing 500 ng/ul RNA:DNA hybrid. All reactions contained 5% DMSO either with or without the small molecule RNase inhibitor. Samples were incubated for 5 min at 37 C, and quenched with EDTA. Products were resolved on an RNA LabChip. Cleavage products were observed as two equally represented RNA species of 1000 and 500 bases. Product length and yield were determined using the 2100 BioAnalyzer software (Agilent). Table 18 details the level of inhibition of MMLV RT RNase H that is observed as a function of the concentration of compounds 467929 and 227726.

bovine RNase A [2] = target: T1, bovine RNase A; experiment: Intactness of total RNA (RNA LabChip), bovine RNase A; format: biochemical; details: 100 uM BpB, 8.3 pg/ul bovine RNase A
Experimental: (§1) A total of 100 pg/ul e. […].
(§2) Mouse pancreatic tissue (5 mg) was disrupted in 50 ul of 24 mM Hepes, pH 7.2, 50 mM NaCl, 1 mM MgCl2. The diluted lysate (1:20,000) was pre-incubated with 50 uM Benzopurpurin B (BpB) for 30 sec and then added to 100 ng/ul mouse liver total RNA (Ambion) and incubated at 23 C for an additional 4 min. Samples were quenched in a guanidinium lysis buffer, and the RNA purified via MEGAclear™ MAG-96 and eluted with 20 ul nuclease-free water. […] These experiments were conducted in the same fashion except that 100 uM BpB was employed. The sample (1 ul) was analyzed by 2100 BioAnalyzer software (Agilent) after separation on an RNA LabChip.
(§3) Pancreatic tissue (5 mg) was dounced in 50 ul of 24 mM Hepes, pH 7.2, 50 mM NaCl, 1 mM MgCl2. The lysate was diluted (1:20,000) and then pre-incubated with 200 uM of 467929. […] All samples were pre-incubated for 30 sec before being added to 100 ng/ul mouse liver total RNA (Ambion) and incubated at 23C for an additional 4 min. The RNA was then immediately purified via MEGAclear™ MAG-96 and eluted with 20 ul nuclease-free water. The recovered RNA (1 ul) was analyzed by 2100 BioAnalyzer software after separation on an RNA LabChip.

[3] = target: T2, human pancreatic RNase (HPR) (Homo sapiens, UniProt P07998); experiment: Intactness of total RNA (RNA LabChip), HPR; format: biochemical; details: 100 uM BpB, 1 ng/ul HPR
T2 sequence (P07998 29-156): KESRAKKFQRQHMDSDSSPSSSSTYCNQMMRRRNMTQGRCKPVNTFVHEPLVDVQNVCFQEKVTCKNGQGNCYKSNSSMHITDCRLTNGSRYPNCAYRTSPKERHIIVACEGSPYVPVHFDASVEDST

E. coli RNase I = E. coli RNase I (Escherichia coli, UniProt P21338); experiment: Intactness of total RNA (RNA LabChip), E. coli RNase I; format: biochemical; details: 100 uM BpB, 7 ng/ul E. coli RNase I
[4] = target: eosinophil-derived neurotoxin (EDN) (Homo sapiens, UniProt P10153); experiment: Intactness of total RNA (RNA LabChip), EDN; format: biochemical; details: 100 uM BpB, 1 ng/ul EDN
DNase I = DNase I (Bos taurus, UniProt P00639); experiment: Lambda DNA digestion assay with DNase I; format: biochemical; details: 0.02 U DNase I, 1 ug lambda DNA, 10 min at 37C
Source text: One application for small molecule RNase inhibitors is as an RNA control agent during enzymatic manipulation of solutions containing RNA. These reactions include in vitro transcription, in vitro translation, DNase digestion, and reverse transcription, among others. […] […] […] All reactions were quenched with EDTA and the cleavage products resolved on a 1% agarose gel.
As a result, compounds such as #467929, 140553, and 180582 may have utility in curbing the activity of residual RNases that may carry over from RNA isolation methods during DNase treatments of the RNA.

diluted pancreas lysate = experiment: Intactness of total RNA (RNA LabChip), diluted pancreas lysate; format: biochemical, mouse; details: pancreas lysate 1:20,000, 23 C 4 min
Experimental: as §1
Pancreatic lysate (0.1 mg/ml) was diluted 1:20,000 in 24 mM Hepes, pH 7.2, 50 mM NaCl, 1 mM MgCl2 and pre-incubated with either 1% SDS or 6.25 mM OVA for 30 s prior to the addition of 2 ug mouse liver total RNA. Reactions were incubated at 25 C for an additional 4 min, quenched, and analyzed on an RNA LabChip.
as §2
Mouse pancreatic tissue (5 mg) was dounced in 50 ul of 24 mM Hepes, pH 7.2, 50 mM NaCl, 1 mM MgCl2. A diluted lysate (1:20,000) was pre-incubated with 100 uM BpB or the analog Benzopurpurin 4B (Bp4B) for 30 sec and then added to 100 ng/ul mouse liver total RNA (Ambion) and incubated at 23 C for an additional 4 min. Samples were quenched in a guanidinium lysis buffer, and the RNA purified via MEGAclear™ MAG-96 and eluted with 20 ul nuclease-free water. The sample (1 ul) was analyzed by 2100 BioAnalyzer software (Agilent) after separation on an RNA LabChip.
as §3

nuclease = nuclease (Homo sapiens, UniProt P03950); experiment: Ki of Lead 1 and Lead 2 analogs (Tables 1 and 2); format: biochemical; details: Table 1, Lead 1 Analog List
[5] = tested on: one-step RT-PCR with MMLV-RT and SuperTaq, target hGAPDH; experiment: One-step qRT-PCR tolerance, hGAPDH; format: biochemical
Experimental: To evaluate the compatibility of Benzopurpurin B and 4B in RT-PCR applications, 100 nM, 1 uM, 10 uM, and 25 uM were tested in Ambion's MessageSensor RT-PCR Kit using the supplier's instructions and using primers/probe designed to amplify a 226 nt amplicon from the human GAPDH mRNA. Reaction conditions: 20-ul one-step RT-PCR with MMLV-RT (0.4 U/ul final) and SuperTaq (0.04 U/ul final). Cycling conditions: Stage 1. 42 C for 15 minutes, Stage 2. 95 C for 5 min, Stage 3. 95 C-15 sec and 60 C-60 sec, where Stage 3 is repeated 40 times. […] The compound was tolerated at 10 uM or lower with no significant loss of sensitivity (Table 16).

Chain of nuclease (P03950 25-147): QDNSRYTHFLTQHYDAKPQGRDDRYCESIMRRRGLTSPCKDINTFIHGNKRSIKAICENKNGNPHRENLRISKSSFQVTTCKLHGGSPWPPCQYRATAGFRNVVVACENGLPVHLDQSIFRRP
Chain of E. coli RNase I (P21338 24-268): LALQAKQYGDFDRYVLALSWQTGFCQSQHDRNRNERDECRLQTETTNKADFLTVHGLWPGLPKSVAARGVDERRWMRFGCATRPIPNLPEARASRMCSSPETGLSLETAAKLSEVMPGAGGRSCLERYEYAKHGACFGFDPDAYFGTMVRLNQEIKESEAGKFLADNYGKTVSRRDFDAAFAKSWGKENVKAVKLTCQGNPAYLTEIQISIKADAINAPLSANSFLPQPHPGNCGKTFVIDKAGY
Chain of DNase I (P00639 23-282): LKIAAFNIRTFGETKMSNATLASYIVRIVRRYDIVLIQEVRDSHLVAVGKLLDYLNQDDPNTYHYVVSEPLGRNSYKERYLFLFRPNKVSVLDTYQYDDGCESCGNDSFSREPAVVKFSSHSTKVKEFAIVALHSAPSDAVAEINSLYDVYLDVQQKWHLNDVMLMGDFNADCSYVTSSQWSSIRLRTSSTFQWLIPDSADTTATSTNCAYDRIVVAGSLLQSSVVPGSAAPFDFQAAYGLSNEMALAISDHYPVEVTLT
Chain of eosinophil-derived neurotoxin (EDN) (P10153 28-161): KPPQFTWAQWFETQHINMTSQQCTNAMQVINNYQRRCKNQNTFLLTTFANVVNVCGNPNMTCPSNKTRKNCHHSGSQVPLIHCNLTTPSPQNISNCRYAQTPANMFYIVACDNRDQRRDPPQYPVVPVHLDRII

| SMILES | pKi (bovine RNase A [1]) | % Cleavage (MMLV RT RNase H; inhibitor 8 uM, 36 without inhibitor) | % Cleavage (MMLV RT RNase H; inhibitor 40 uM) | inhibition of RNase (RNA intactness) (bovine RNase A [2]) | inhibition of RNase (RNA intactness) [3] | inhibition of RNase (RNA intactness) (E. coli RNase I) | inhibition of RNase (RNA intactness) [4] | concentration tolerated with little or no effect on enzymatic DNA cleavage (DNase I) | protection of total RNA from degradation (diluted pancreas lysate; 50 uM BpB) | protection of total RNA from degradation (diluted pancreas lysate; 100 uM inhibitor) | pKi (nuclease) | Ct at 50 ng Input RNA ([5]; RT w RIP, inhibitor 1 uM) | Ct at 50 ng Input RNA ([5]; RT w RIP, inhibitor 10 uM) | Ct at 50 ng Input RNA ([5]; RT w RIP, inhibitor 25 uM) | Ct at 50 ng Input RNA ([5]; RT w RIP, inhibitor 100 nm) | Ct at 50 ng Input RNA ([5]; RT without RIP, inhibitor 1 uM) | Ct at 50 ng Input RNA ([5]; RT without RIP, inhibitor 10 uM) | Ct at 50 ng Input RNA ([5]; RT without RIP, inhibitor 25 uM) | Ct at 50 ng Input RNA ([5]; RT without RIP, inhibitor 100 nm) |
| --- | --- | --- | --- | --- | --- | --- | --- | --- | --- | --- | --- | --- | --- | --- | --- | --- | --- | --- | --- |
| O=C(Nc1ccc(Cc2ccc(NC(=O)c3cccc([N+](=O)[O-])c3)c(C(=O)O)c2)cc1C(=O)O)c1cccc([N+](=O)[O-])c1 [compound 467929, 3,3′-dicarboxy-4,4′-bis(3-ni-trophenylamido)di-phenylmethane] | ~4.92 | 42% | 8% |  |  |  |  |  |  |  |  |  |  |  |  |  |  |  |  |
| Cc1cc(-c2ccc(/N=N/c3c(N)ccc4cc(S(=O)(=O)O)ccc34)c(C)c2)ccc1/N=N/c1c(N)ccc2cc(S(=O)(=O)O)ccc12 [Benzopurpurin B, 3,3′-di-methylbiphenyl-4,4′-bis(2-amino-naphthylazo-6-sulfo-nate)] |  |  |  | effective inhibitor | effective inhibitor | effective inhibitor | effective inhibitor | up to 10 uM | significant protection | significant protection | 5.30 | 17.66 | 19.27 | undet | 17.27 | 17.35 | 17.96 | undet | 17.39 |

From patent US7264932B2, “Nuclease inhibitor cocktail” (Applera Corporation, priority 1999, dated 2007)
